Data reported in the supplement of paper PMC10307832.

What was measured:
Assay in all cases: relative viability (nuclei count vs DMSO), 5 days (fraction); higher = more cells survive
Cediranib + Foretinib = compound: COc1cc2c(Oc3ccc4[nH]c(C)cc4c3F)ncnc2cc1OCCCN1CCCC1 [Cediranib] + COc1cc2c(Oc3ccc(NC(=O)C4(C(=O)Nc5ccc(F)cc5)CC4)cc3F)ccnc2cc1OCCCN1CCOCC1 [Foretinib] (partner 0.25 µM)
In short: (§1)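 Lung cancer cell lines, seeded in 1536-well plates, were treated the following day by pin tool with a single drug or with five library-drug doses (not always all listed) in √10 steps on top of a fixed anchor-drug dose. Cells were fixed and nuclei stained in one step after 5 days, and nuclei were counted. Relative viability is the nuclei count for treated wells divided by that for vehicle wells, reported as medians of duplicate plates.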

[1] = compound: O=C(C[C@H]1NCCC[C@@H]1O)Cn1cnc2cc(Br)c(Cl)cc2c1=O (racemic) [Halofuginone] + CC(=O)Nc1cccc(-n2c(=O)n(C3CC3)c(=O)c3c(Nc4ccc(I)cc4F)n(C)c(=O)c(C)c32)c1 [Trametinib] (partner 0.02 µM)
In short: as §1

[2] = compound: O=C(C[C@H]1NCCC[C@@H]1O)Cn1cnc2cc(Br)c(Cl)cc2c1=O (racemic) [Halofuginone] + CC(=O)c1c(C)c2cnc(Nc3ccc(N4CCNCC4)cn3)nc2n(C2CCCC2)c1=O [Palbociclib] (partner 0.5 µM)
In short: as §1

[3] = compound: O=C(C[C@H]1NCCC[C@@H]1O)Cn1cnc2cc(Br)c(Cl)cc2c1=O (racemic) [Halofuginone] + C[C@]1(O)C[C@@H](c2nc(-c3ccc4ccc(-c5ccccc5)nc4c3)c3c(N)nccn32)C1 [Linsitinib] (partner 1 µM)
In short: as §1

| Cell Line | relative viability (Cediranib + Foretinib; first compound 0.04 µM) | relative viability (Cediranib + Foretinib; first compound 0.1265 µM) | relative viability (Cediranib + Foretinib; first compound 0.4 µM) | relative viability (Cediranib + Foretinib; first compound 1.265 µM) | relative viability (Cediranib + Foretinib; first compound 4 µM) | relative viability ([1]; first compound 0.001 µM) | relative viability ([1]; first compound 0.003162 µM) | relative viability ([1]; first compound 0.01 µM) | relative viability ([1]; first compound 0.03162 µM) | relative viability ([1]; first compound 0.1 µM) | relative viability ([2]; first compound 0.001 µM) | relative viability ([2]; first compound 0.003162 µM) | relative viability ([2]; first compound 0.01 µM) | relative viability ([2]; first compound 0.03162 µM) | relative viability ([2]; first compound 0.1 µM) | relative viability ([3]; first compound 0.001 µM) | relative viability ([3]; first compound 0.003162 µM) | relative viability ([3]; first compound 0.01 µM) | relative viability ([3]; first compound 0.03162 µM) | relative viability ([3]; first compound 0.1 µM) |
| --- | --- | --- | --- | --- | --- | --- | --- | --- | --- | --- | --- | --- | --- | --- | --- | --- | --- | --- | --- | --- |
| NCI-H1395 | 1.1 | 1.01 | 0.911 | 0.976 | 1.13 | 0.95 | 1.03 | 0.912 | 0.889 | 0.746 | 0.645 | 0.589 | 0.542 | 0.553 | 0.458 | 1.17 | 1.62 | 1.2 | 0.961 | 0.776 |
| NCI-H1437 | 1.34 | 1.22 | 1.24 | 1.25 | 1.32 | 0.548 | 0.553 | 0.558 | 0.481 | 0.387 | 0.334 | 0.3 | 0.296 | 0.33 | 0.286 | 1.05 | 1.13 | 0.988 | 0.828 | 0.208 |
| NCI-H1651 | 0.827 | 0.763 | 0.685 | 0.831 | 0.829 | 0.8 | 0.853 | 0.804 | 0.819 | 0.806 | 0.523 | 0.515 | 0.51 | 0.513 | 0.509 | 1.07 | 0.978 | 0.994 | 0.6 | 0.332 |
| NCI-H1666 | 0.972 | 1.01 | 0.916 | 0.945 | 1 | 0.944 | 0.852 | 0.79 | 0.865 | 0.68 | 0.668 | 0.683 | 0.641 | 0.676 | 0.645 | 1.03 | 0.957 | 0.779 | 0.842 | 0.703 |
| NCI-H1734 | 0.813 | 0.911 | 0.822 | 0.853 | 0.979 | 0.68 | 0.721 | 0.733 | 0.602 | 0.171 | 0.338 | 0.361 | 0.33 | 0.32 | 0.2 | 0.904 | 0.947 | 0.888 | 0.938 | 0.416 |
| NCI-H1755 | 0.97 | 0.941 | 0.903 | 0.944 | 0.908 | 0.793 | 0.786 | 0.745 | 0.774 | 0.765 | 0.436 | 0.479 | 0.421 | 0.491 | 0.418 | 1.06 | 1.02 | 0.971 | 0.985 | 0.768 |
| NCI-H1793 | 0.758 | 0.931 | 0.698 |  | 0.672 | 0.483 | 0.524 | 0.363 | 0.503 | 0.327 | 0.271 | 0.348 | 0.292 | 0.335 | 0.196 | 0.985 | 0.962 | 0.822 | 0.883 | 0.398 |
| NCI-H1915 | 1.14 | 1.01 | 1.08 | 1.11 | 1.13 | 0.319 | 0.291 | 0.28 | 0.297 | 0.262 | 0.571 | 0.514 | 0.523 | 0.472 | 0.422 | 1.05 | 1.1 | 1 | 1.06 | 0.974 |
| NCI-H1944 | 0.95 | 0.975 | 0.905 | 0.873 | 1 | 0.394 | 0.437 | 0.417 | 0.43 | 0.355 | 0.286 | 0.362 | 0.313 | 0.357 | 0.293 | 1.2 | 1.1 | 1.22 | 1.13 | 0.936 |
| NCI-H1975 | 0.952 | 1.03 | 0.944 | 1.05 | 1.04 | 0.448 | 0.317 | 0.361 | 0.298 | 0.157 | 0.66 | 0.547 | 0.553 | 0.42 | 0.157 | 1.09 | 0.924 | 0.976 | 0.497 | 0.15 |
| NCI-H1993 | 0.798 | 0.936 | 0.763 | 0.739 | 0.53 | 0.502 | 0.505 | 0.597 | 0.505 | 0.485 | 0.626 | 0.519 | 0.637 | 0.617 | 0.454 | 0.742 | 0.685 | 0.72 | 0.801 | 0.544 |
| NCI-H2009 | 1.24 | 1.15 | 1.24 | 1.25 | 1.17 | 0.345 | 0.343 | 0.295 | 0.234 | 0.11 | 0.349 | 0.252 | 0.218 | 0.201 | 0.157 | 1.27 | 1.12 | 1.19 | 0.872 | 0.81 |
| NCI-H2023 | 0.775 | 0.922 | 0.924 | 0.878 | 1.01 | 0.625 | 0.482 | 0.558 | 0.202 | 0.0677 | 0.406 | 0.361 | 0.374 | 0.138 | 0.0623 | 0.76 | 0.535 | 0.706 | 0.232 | 0.157 |
